Reference: US20250282799A1, “SUBSTITUTED PYRIDO[4,3-d]PYRIMIDINES AS KRAS MODULATORS” (Alterome Therapeutics, Inc., priority 2023, published 2025)

System: KRAS G12V dependent lung adenocarcinoma cell line, NCI-H441
Assay: Cellular pERK (Thr202/Tyr204) FRET/HTRF assay
Format: cell-based
Details: Homo sapiens, NCI-H441, cellular pERK (Thr202/Tyr204) HTRF, NCI-H441 cells
Summary of the method: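 Using a mix-and-read HTRF kit, phospho-ERK (Thr202/Tyr204) was detected in NCI-H441 lysates following 1 hr compound incubation at 37 °C, 5% CO2. Cells had been seeded overnight beforehand, and IC50 was derived by curve fitting.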

IC50 | SMILES
< 50 nM | C#Cc1c(F)ccc2cc(N)cc(-c3ncc4c(N5CCOC[C@H]6[C@H](F)[C@H]65)nc(OC[C@@]56CCCN5C[C@]5(C[C@@H]5F)C6)nc4c3F)c12 (single isomer, unassigned) [Example 255]
< 50 nM | [2H]C([2H])(F)Oc1c(F)cc(F)c2cc(N)cc(-c3ncc4c(N5CCCC[C@H]6[C@H](F)[C@H]65)nc(OC([2H])([2H])[C@@]56CCCN5C[C@H](F)C6)nc4c3F)c12 [Example 173, 6,8-difluoro-4-(8-fluoro-4-((1S,7R,8S)-8-fluoro-2-azabicyclo[5.1.0]octan-2-yl)-2-(((2R,7aS)-2-fluorotetrahydro-1H-pyrrolizin-7a(5H)-yl)methoxy-d2)pyrido[4,3-d]pyrimidin-7-yl)-5-(fluoromethoxy-d2)naphthalen-2-amine]
< 50 nM | [2H]C([2H])(Oc1nc(N2CCOC[C@H]3[C@H](F)[C@H]32)c2cnc(-c3cc(O)cc4cccc(C#C)c34)c(F)c2n1)[C@@]12CCCN1C[C@H](F)C2 [Example 300, 5-ethynyl-4-(8-fluoro-4-((1S,7S,8S)-8-fluoro-5-oxa-2-azabicyclo[5.1.0]octan-2-yl)-2-(((2R,7aS)-2-fluorotetrahydro-1H-pyrrolizin-7a(5H)-yl)methoxy-d2)pyrido[4,3-d]pyrimidin-7-yl)naphthalen-2-ol]
< 50 nM | [2H]C([2H])(F)Oc1c(F)ccc2cccc(-c3ncc4c(N5CCCC[C@H]6[C@H](F)[C@H]65)nc(OC[C@]56CC(=C)CN5CCC65CC5)nc4c3F)c12 [Example 407, (R)-7a′-(((8-fluoro-7-(7-fluoro-8-(fluoromethoxy-d2)naphthalen-1-yl)-4-((1S,7R,8S)-8-fluoro-2-azabicyclo[5.1.0]octan-2-yl)pyrido[4,3-d]pyrimidin-2-yl)oxy)methyl)-6′-methylenehexahydrospiro[cyclopropane-1,1′-pyrrolizine]]
< 50 nM | C#Cc1c(F)ccc2cccc(-c3ncc4c(N5CCOC[C@H]6[C@H](F)[C@H]65)nc(OC[C@@]56CCCN5C/C(=C/F)C6)nc4c3F)c12 [Example 129, (1S,7S,8S)-2-(7-(8-Ethynyl-7-fluoronaphthalen-1-yl)-8-fluoro-2-(((S,E)-2-(fluoromethylene)tetrahydro-1H-pyrrolizin-7a(5H)-yl)methoxy)pyrido[4,3-d]pyrimidin-4-yl)-8-fluoro-5-oxa-2-azabicyclo[5.1.0]octane]
< 50 nM | C#Cc1c(F)ccc2cc(N)cc(-c3ncc4c(N5CCOC[C@H]6[C@H](F)[C@H]65)nc(OC[C@@]56CCCN5C[C@@]5(C[C@@H]5F)C6)nc4c3F)c12 (single isomer, unassigned) [Example 252]
< 50 nM | C#Cc1c(F)ccc2cc(N)cc(-c3ncc4c(N5CCOC[C@H]6[C@H](F)[C@H]65)nc(OC[C@]56CC7(CC7)CN5CCC65CC5)nc4c3F)c12 [Example 206, 4-(2-(((R)-Dihydro-5′H-dispiro[cyclopropane-1,1′-pyrrolizine-6′,1″-cyclopropan]-7a′(7′H)-yl)methoxy)-8-fluoro-4-((1S,7S,8S)-8-fluoro-5-oxa-2-azabicyclo[5.1.0]octan-2-yl)pyrido[4,3-d]pyrimidin-7-yl)-5-ethynyl-6-fluoronaphthalen-2-amine]

Same assay, conditions: Homo sapiens, NCI-H441, cellular pERK HTRF, NCI-H441 (KRAS G12V) cells

IC50 | SMILES
< 50 nM | [2H]C([2H])(Oc1nc(N2CCCC[C@H]3[C@H](F)[C@H]32)c2cnc(-c3cc(O)cc4ccc(F)c(C#C)c34)c(C)c2n1)[C@]12CC(=C)CN1CCC21CC1 [Example 462, 5-Ethynyl-6-fluoro-4-(4-((1S,7R,8S)-8-fluoro-2-azabicyclo[5.1.0]octan-2-yl)-8-methyl-2-(((R)-6′-methylenetetrahydrospiro[cyclopropane-1,1′-pyrrolizin]-7a′(5′H)-yl)methoxy-d2)pyrido[4,3-d]pyrimidin-7-yl)naphthalen-2-ol]
< 50 nM | C#Cc1c(F)ccc2cc(O)cc(-c3ncc4c(N5CCOC[C@H]6[C@H](F)[C@H]65)nc(OC[C@@]56CCCN5C/C(=C/F)C6)nc4c3C)c12 [Example 447, 5-ethynyl-6-fluoro-4-(4-((1S,7S,8S)-8-fluoro-5-oxa-2-azabicyclo[5.1.0]octan-2-yl)-2-(((S,E)-2-(fluoromethylene)tetrahydro-1H-pyrrolizin-7a(5H)-yl)methoxy)-8-methylpyrido[4,3-d]pyrimidin-7-yl)naphthalen-2-ol]
< 50 nM | [2H]C([2H])(Oc1nc(N2CCOC[C@H]3[C@H](F)[C@H]32)c2cnc(-c3cc(O)cc4ccc(F)c(C#C)c34)c(F)c2n1)[C@@]12CCCN1[C@H](C)[C@H](F)C2 [Example 472, 5-ethynyl-6-fluoro-4-(8-fluoro-2-(((2R,3R,7aS)-2-fluoro-3-methyltetrahydro-1H-pyrrolizin-7a(5H)-yl)methoxy-d2)-4-((1S,7S,8S)-8-fluoro-5-oxa-2-azabicyclo[5.1.0]octan-2-yl)pyrido[4,3-d]pyrimidin-7-yl)naphthalen-2-ol]

Same assay, conditions: Homo sapiens, NCI-H441, pERK HTRF, NCI-H441 cells (KRAS G12V)

IC50 | SMILES
50 to 500 nM | C#Cc1c(F)ccc2cc(N)cc(-c3ncc4c(N5CCCCC6C5C6(F)F)nc(OC[C@@]56CCCN5C[C@H](F)C6)nc4c3F)c12 (stereo partly drawn) [Example 57, 4-(4-(8,8-Difluoro-2-azabicyclo[5.1.0]octan-2-yl)-8-fluoro-2-(((2R,7aS)-2-fluorotetrahydro-1H-pyrrolizin-7a(5H)-yl)methoxy)pyrido[4,3-d]pyrimidin-7-yl)-5-ethynyl-6-fluoronaphthalen-2-amine]
< 50 nM | [2H]C([2H])([2H])Oc1c(F)c(F)c(F)c2cc(N)cc(-c3ncc4c(N5CCOC[C@H]6[C@H](F)[C@H]65)nc(OC([2H])([2H])[C@@]56CCCN5C[C@H](F)C6)nc4c3F)c12 [Example 41, 6,7,8-Trifluoro-4-(8-fluoro-4-((1S,7S,8S)-8-fluoro-5-oxa-2-azabicyclo[5.1.0]octan-2-yl)-2-(((2R,7aS)-2-fluorotetrahydro-1H-pyrrolizin-7a(5H)-yl)methoxy-d2)pyrido[4,3-d]pyrimidin-7-yl)-5-(methoxy-d3)naphthalen-2-amine]
< 50 nM | [2H]C([2H])(Oc1nc(N2CCOC[C@H]3[C@H](F)[C@H]32)c2cnc(-c3cc(N)cc4c(F)c(F)c(F)c(C#C)c34)c(F)c2n1)[C@@]12CCCN1C[C@H](F)C2 [Example 93, 5-Ethynyl-6,7,8-trifluoro-4-(8-fluoro-4-((1S,7S,8S)-8-fluoro-5-oxa-2-azabicyclo[5.1.0]octan-2-yl)-2-(((2R,7aS)-2-fluorotetrahydro-1H-pyrrolizin-7a(5H)-yl)methoxy-d2)pyrido[4,3-d]pyrimidin-7-yl)naphthalen-2-amine]
< 50 nM | [2H]C([2H])([2H])Oc1c(F)c(F)c(F)c2cc(N)cc(-c3ncc4c(N5CCCO[C@H]6[C@H](F)[C@H]65)nc(OC([2H])([2H])[C@@]56CCCN5C[C@H](F)C6)nc4c3F)c12 [Example 77, 6,7,8-Trifluoro-4-(8-fluoro-4-((1R,7S,8R)-8-fluoro-2-oxa-6-azabicyclo[5.1.0]octan-6-yl)-2-(((2R,7aS)-2-fluorotetrahydro-1H-pyrrolizin-7a(5H)-yl)methoxy-d2)pyrido[4,3-d]pyrimidin-7-yl)-5-(methoxy-d3)naphthalen-2-amine]
< 50 nM | C#Cc1c(F)ccc2cc(O)cc(-c3ncc4c(N5CCCC[C@H]6C[C@H]65)nc(OC[C@@]56CCCN5C[C@H](F)C6)nc4c3F)c12 [Example 2, 4-(4-((1R,7S)-2-azabicyclo[5.1.0]octan-2-yl)-8-fluoro-2-(((2R,7aS)-2-fluorotetrahydro-1H-pyrrolizin-7a(5H)-yl)methoxy)pyrido[4,3-d]pyrimidin-7-yl)-5-ethynyl-6-fluoronaphthalen-2-ol]

Same assay, conditions: cellular pERK (Thr202/Tyr204) HTRF, NCI-H441 cells

IC50 | SMILES
500 to 10000 nM | [2H]C([2H])(Oc1nc(N2CCOC[C@@H]3[C@@H](Cl)[C@@H]32)c2cc(C(F)(F)F)c(-c3ccc(F)c4sc(N)c(C#N)c34)c(F)c2n1)[C@@]12CCCN1C[C@H](F)C2 (atropisomer, axis not shown; (aS)) [Example 421, 2-amino-4-((R)-4-((1R,7R,8R)-8-chloro-5-oxa-2-azabicyclo[5.1.0]octan-2-yl)-8-fluoro-2-(((2R,7aS)-2-fluorotetrahydro-1H-pyrrolizin-7a(5H)-yl)methoxy-d2)-6-(trifluoromethyl)quinazolin-7-yl)-7-fluorobenzo[b]thiophene-3-carbonitrile]

Same assay, conditions: cellular pERK HTRF, NCI-H441 (KRAS G12V) cells

IC50 | SMILES
500 to 10000 nM | [2H]C([2H])(Oc1nc(N2CCOC[C@H]3[C@H](F)[C@H]32)c2cc(F)c(-c3ccc(F)c4sc(N)c(C#N)c34)c(C)c2n1)[C@@]12CCCN1C[C@H](F)C2 (atropisomer, axis not shown; (aS)) [Example 450, 2-amino-7-fluoro-4-((S)-6-fluoro-4-((1S,7S,8S)-8-fluoro-5-oxa-2-azabicyclo[5.1.0]octan-2-yl)-2-(((2R,7aS)-2-fluorotetrahydro-1H-pyrrolizin-7a(5H)-yl)methoxy-d2)-8-methylquinazolin-7-yl)benzo[b]thiophene-3-carbonitrile]
< 50 nM | [2H]C([2H])(Oc1nc(N2CCOC[C@H]3[C@H](F)[C@H]32)c2cc(F)c(-c3cc(O)cc4ccc(F)c(C#C)c34)c(F)c2n1)[C@@]12CCCN1C[C@H](F)C2 (atropisomer, axis not shown; (aS)) [Example 453, 4-((R)-6,8-difluoro-4-((1S,7S,8S)-8-fluoro-5-oxa-2-azabicyclo[5.1.0]octan-2-yl)-2-(((2R,7aS)-2-fluorotetrahydro-1H-pyrrolizin-7a(5H)-yl)methoxy-d2)quinazolin-7-yl)-5-ethynyl-6-fluoronaphthalen-2-ol]
